Reference: ChEMBL document CHEMBL4680278 (J Med Chem, 2020)

What was measured:
[1] = target: T1, Alpha-2C adrenergic receptor (Homo sapiens, UniProt P18825); assay: Inhibition of alpha2C receptor (unknown origin)
T1 sequence (P18825 whole entry): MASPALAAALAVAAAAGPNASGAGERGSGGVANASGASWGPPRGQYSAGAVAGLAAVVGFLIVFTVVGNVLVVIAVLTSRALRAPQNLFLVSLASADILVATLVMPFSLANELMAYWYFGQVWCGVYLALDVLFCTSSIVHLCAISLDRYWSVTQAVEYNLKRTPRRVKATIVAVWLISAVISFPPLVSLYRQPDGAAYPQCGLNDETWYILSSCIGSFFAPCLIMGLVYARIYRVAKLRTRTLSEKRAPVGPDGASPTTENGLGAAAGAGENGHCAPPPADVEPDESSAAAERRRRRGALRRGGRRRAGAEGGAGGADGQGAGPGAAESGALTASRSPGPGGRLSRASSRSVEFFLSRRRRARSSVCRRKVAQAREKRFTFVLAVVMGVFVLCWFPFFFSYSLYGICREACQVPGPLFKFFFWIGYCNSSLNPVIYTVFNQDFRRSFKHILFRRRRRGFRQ

[2] = Toxicity in pig assessed as mean arterial blood pressure drop at 50 mg/kg, iv administered for 15 mins by pulse oximetry relative to baseline; format: organism-based, Sus scrofa; settings: in vivo, 0.25 h
D(1A) dopamine receptor = D(1A) dopamine receptor (Homo sapiens, UniProt P21728); assay: Inhibition of D1 dopamine receptor (unknown origin)
clinical = settings: human, in vivo, other: aerosol spray, 20 mg
Description: Elimination rate constant in human at 20 mg using aerosol spray measured for 6 weeks

[3] = Apparent oral clearance in human in fed state at 5 to 20 mg using oromucosal-spray formulation cotreated with THC by GC-MS analysis; format: ADME; settings: in vivo, dose 5-20 mg
[4] = Protein binding in human plasma incubated for 20 to 24 hrs; format: ADME, cell-free; settings: time 20-24 hrs, read-out: PPB (converted)
Cytochrome P450 3A7 = Cytochrome P450 3A7 (Homo sapiens, UniProt P24462); assay: Mixed type inhibition of human recombinant CYP3A7 expressed in baculovirus-infected insect cells using diltiazem as substrate incubated for 30 mins followed by NADPH-generating system addition by Michaelis-Menten plot analysis; format: ADME
[5] = target: T2, Steroid 17-alpha-hydroxylase/17,20 lyase (Rattus norvegicus, UniProt P11715); assay: Mixed type inhibition of CYP17 in Sprague-Dawley rat testis microsomes assessed as reduction in 17alpha-Hydroxylase activity in presence of NADPH-generating system incubated for 2 mins by Lineweaver-Burk plot analysis; format: ADME
T2 sequence (P11715 whole entry): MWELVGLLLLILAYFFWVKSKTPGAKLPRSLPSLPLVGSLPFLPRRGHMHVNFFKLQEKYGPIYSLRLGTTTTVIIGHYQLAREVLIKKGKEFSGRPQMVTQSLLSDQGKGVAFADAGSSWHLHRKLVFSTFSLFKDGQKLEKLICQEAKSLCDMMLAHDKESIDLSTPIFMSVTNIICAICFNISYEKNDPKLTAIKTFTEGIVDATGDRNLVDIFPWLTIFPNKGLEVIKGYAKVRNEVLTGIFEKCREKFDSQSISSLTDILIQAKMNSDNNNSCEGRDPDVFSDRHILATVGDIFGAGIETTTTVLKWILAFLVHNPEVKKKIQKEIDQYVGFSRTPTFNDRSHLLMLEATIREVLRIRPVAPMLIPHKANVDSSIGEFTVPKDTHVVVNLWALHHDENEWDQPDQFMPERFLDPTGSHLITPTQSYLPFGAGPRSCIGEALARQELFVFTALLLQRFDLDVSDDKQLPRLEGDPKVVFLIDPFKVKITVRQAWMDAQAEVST

[6] = Elimination half-life in human at 10 mg using oromucosal-spray formulation measured upto 24 hrs by LC-MS/MS assay; format: ADME; settings: in vivo, read-out: beta t1/2 (converted)
[7] = Cmax in mouse brain at 10 mg/kg, sc measured after 1 to 3 hrs by HPLC analysis; format: ADME, organism-based; set-up: route subcutaneous, time lower 1 hrs, dose 10 mg/kg, time upper 3 hrs
[8] = Elimination half-life in human at 20 mg using aerosol spray measured for 6 weeks; format: ADME; settings: in vivo, inhaled_or_intranasal, 1008 h
Cytochrome P450 3A5 = Cytochrome P450 3A5 (Homo sapiens, UniProt P20815); assay: Competitive inhibition of human recombinant CYP3A5 expressed in baculovirus-infected insect cells using diltiazem as substrate incubated for 15 mins followed by NADPH-generating system addition by Michaelis-Menten plot analysis; format: ADME
[9] = Maximum drug concentration in Swiss mouse brain at 120 mg/kg, po measured up to 24 hrs by HPLC analysis; format: ADME, organism-based; set-up: route oral, dose 120 mg/kg, time <=24

Chain of D(1A) dopamine receptor (P21728 whole entry): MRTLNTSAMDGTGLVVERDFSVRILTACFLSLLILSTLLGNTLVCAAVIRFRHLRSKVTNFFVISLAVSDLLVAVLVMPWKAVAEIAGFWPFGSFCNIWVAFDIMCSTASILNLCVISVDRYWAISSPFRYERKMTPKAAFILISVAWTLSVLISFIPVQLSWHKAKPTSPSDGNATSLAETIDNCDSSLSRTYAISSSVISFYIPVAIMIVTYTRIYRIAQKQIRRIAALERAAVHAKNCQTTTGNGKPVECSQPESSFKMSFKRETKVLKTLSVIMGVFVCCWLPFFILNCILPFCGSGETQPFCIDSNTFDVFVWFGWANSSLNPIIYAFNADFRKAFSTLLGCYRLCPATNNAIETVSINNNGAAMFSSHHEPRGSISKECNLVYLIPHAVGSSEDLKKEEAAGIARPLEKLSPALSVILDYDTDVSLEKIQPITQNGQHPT
Chain of Cytochrome P450 3A5 (P20815 whole entry): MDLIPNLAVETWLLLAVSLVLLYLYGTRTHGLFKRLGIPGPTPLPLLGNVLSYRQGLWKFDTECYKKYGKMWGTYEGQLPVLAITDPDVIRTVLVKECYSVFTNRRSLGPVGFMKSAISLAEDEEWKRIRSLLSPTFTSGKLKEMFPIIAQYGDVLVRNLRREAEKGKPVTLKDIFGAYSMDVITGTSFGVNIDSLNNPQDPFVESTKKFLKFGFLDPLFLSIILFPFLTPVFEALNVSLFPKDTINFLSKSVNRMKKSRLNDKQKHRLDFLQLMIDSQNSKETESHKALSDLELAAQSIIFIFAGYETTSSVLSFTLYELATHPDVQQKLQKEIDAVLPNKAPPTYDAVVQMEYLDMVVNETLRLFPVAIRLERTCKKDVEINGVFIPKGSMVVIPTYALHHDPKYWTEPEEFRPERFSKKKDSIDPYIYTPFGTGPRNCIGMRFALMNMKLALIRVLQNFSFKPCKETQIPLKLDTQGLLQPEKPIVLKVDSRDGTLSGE
Chain of Cytochrome P450 3A7 (P24462 whole entry): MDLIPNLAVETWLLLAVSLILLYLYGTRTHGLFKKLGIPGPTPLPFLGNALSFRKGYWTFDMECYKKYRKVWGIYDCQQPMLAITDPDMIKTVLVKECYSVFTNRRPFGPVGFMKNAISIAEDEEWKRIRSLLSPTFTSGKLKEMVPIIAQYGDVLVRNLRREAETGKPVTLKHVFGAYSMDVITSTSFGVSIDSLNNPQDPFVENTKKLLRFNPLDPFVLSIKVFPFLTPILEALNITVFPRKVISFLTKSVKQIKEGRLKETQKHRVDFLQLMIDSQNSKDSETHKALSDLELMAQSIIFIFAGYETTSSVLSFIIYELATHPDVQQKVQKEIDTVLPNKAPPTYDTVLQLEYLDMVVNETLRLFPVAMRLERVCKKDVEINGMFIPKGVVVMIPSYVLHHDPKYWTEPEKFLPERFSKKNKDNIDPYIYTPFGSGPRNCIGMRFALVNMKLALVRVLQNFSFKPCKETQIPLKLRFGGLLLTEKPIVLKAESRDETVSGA

In the case of `C=C(C)[C@@H]1CCC(C)=C[C@H]1c1c(O)cc(CCCCC)cc1O` [CANNABIDIOL], the Ki [1] is reported as 3.7 µM, the Activity [2] is reported as less than 70% and the Ki (D(1A) dopamine receptor) is reported as 2.7 µM. For the same molecule, the k el at 1008 h (clinical) was 0.000119 s⁻¹, the CL/F [3] was 8880 mL/min and the fraction unbound [4] was 0.1. For the same molecule, the Ki (Cytochrome P450 3A7) was 12.3 µM, the Ki [5] was 124 µM and the half-life [6] was 2 h. For the same molecule, the Cmax [7] was 1000 nM, the “beta t1/2” value [8] was 2 h and the Ki (Cytochrome P450 3A5) was 0.19 µM. The Cmax [9] was 4000 nM.
